Measurements from patent US6391595B1, “Transferase and amylase, process for producing the enzymes, use thereof, and gene coding for the same” (Kirin Beer Kabushiki Kaisha, priority 1994, dated 2002).

Key:
[1] = molecular target: T1, recombinant novel amylase (Saccharolobus solfataricus, UniProt Q55088); assay: Substrate specificity of the recombinant novel amylase (crude enzyme solution); settings: for Liberated oligosaccharide / Production rate of mono- and disaccharides: 35.2 Units/ml crude enzyme solution, 10 mM substrate (amylopectin and soluble starch 3.0%); for Production rate of mono- and disaccharides: 1 Unit = 1 μmol per hour
T1 sequence (Q55088 1-559): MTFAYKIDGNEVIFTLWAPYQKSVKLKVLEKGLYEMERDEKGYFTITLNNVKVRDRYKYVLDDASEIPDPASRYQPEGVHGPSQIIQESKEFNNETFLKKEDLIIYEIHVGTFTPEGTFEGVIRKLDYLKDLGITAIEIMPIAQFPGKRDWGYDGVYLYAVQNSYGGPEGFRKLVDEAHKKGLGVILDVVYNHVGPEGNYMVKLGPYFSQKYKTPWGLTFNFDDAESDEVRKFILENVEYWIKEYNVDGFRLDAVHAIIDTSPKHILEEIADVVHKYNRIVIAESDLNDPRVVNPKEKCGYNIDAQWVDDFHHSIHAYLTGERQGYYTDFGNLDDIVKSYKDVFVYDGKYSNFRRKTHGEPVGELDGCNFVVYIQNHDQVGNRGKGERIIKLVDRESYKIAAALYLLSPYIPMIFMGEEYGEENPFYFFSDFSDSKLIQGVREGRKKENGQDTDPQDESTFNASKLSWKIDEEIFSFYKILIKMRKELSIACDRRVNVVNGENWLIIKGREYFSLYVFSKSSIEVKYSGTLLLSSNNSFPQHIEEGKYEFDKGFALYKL

[2] = test system: recombinant novel transferase; assay: Conversion of maltooligosaccharides into α-1,α-1-transferred isomers by transferase from a transformant; assay type: biochemical, Sulfolobus solfataricus; settings: 12.7 Units/ml concentrated enzyme solution (on maltotriose); 1 Unit = 1 μmol α-1,α-1-transferred isomer per hour
Procedure: Maltotriose (G3)-Maltoheptaose (G7) (all manufactured by Hayashibara Baiokemikaru Co.) were used as substrates. The crude enzyme solution obtained in Example I-14 was lyophilized, and then suspended in a 50 mM sodium acetate solution (pH 5.5) to make a concentrated enzyme solution. Each of the substrates was subjected to reaction with 12.7 Units/ml (in terms of the enzymatic activity when maltotriose is used as the substrate) of the concentrated enzyme solution to produce a corresponding α-1,α-1-transferred isomer. Each reaction product was analyzed by the method described in Example I-1 to examine the yield and the enzymatic activity. Incidentally, as to the enzymatic activity shown in Table 38, 1 Unit is defined as an enzymatic activity of transferring maltooligosaccharide to produce 1 μmol per hour of a corresponding α-1,α-1-transferred isomer.

[3] = molecular target: T2, amylase derived from the Sulfolobus solfataricus strain KM1 (Saccharolobus solfataricus, UniProt Q55088); assay: Substrate specificity of the purified amylase (hydrolyzing properties, TSK-gel Amide-80 HPLC); assay type: biochemical; settings: for Liberated oligosaccharide / Production rate of mono- and disaccharides: 25.0 Units/ml enzyme, 10 mM substrate (amylopectin and soluble starch 2.8%); for Production rate of mono- and disaccharides: 1 Unit = 1 μmol per hour
T2 construct: endogenous in cells; host or cells: Sulfolobus solfataricus strain KM1 cells
T2 sequence (Q55088 1-559): T1 sequence (Q55088 1-559)
Procedure: The hydrolyzing properties were analyzed by allowing 25.0 Units/ml (in terms of the enzymatic activity when maltotriosyltrehalose is used as the substrate) of the present purified enzyme to act on the various 10 mM substrates (except amylopectin and soluble starch were used as 2.8% solutions) listed in Table 16 below, and the hydrolyzed products were also analyzed.
Incidentally, each enzymatic activity in Table 16 is expressed with such a unit as 1 Unit equals the activity of liberating 1 μmol of each of the monosaccharide and disaccharide per hour.

[4] = molecular target: T3, swine pancreatic α-amylase (Sus scrofa, UniProt P00690); assay: Hydrolysis of oligosaccharides by pancreatic α-amylase (comparative); assay type: biochemical; settings: 1 Unit/ml α-amylase, 10 mM substrate, pH 6.9, 20° C.; for Production rate of di- and trisaccharides: 1 Unit = 1 umol per hour
T3 construct: purchased Sigma Co. A-6255
T3 sequence (P00690 16-511): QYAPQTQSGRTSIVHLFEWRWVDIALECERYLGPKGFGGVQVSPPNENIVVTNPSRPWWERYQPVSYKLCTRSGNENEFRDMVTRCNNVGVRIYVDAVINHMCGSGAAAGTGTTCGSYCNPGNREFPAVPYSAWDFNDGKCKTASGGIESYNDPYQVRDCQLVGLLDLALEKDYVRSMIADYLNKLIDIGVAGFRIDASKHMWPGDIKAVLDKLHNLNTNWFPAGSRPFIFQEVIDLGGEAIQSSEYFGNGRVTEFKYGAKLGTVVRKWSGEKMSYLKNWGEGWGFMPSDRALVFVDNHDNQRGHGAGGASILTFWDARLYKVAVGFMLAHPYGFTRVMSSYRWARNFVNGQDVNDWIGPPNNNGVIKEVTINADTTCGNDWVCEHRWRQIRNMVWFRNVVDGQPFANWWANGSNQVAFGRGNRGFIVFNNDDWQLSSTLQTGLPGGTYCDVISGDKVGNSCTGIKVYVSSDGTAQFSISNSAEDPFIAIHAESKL
Procedure: Swine pancreatic α-amylase is known to hydrolyze maltooligosaccharide from the reducing end by two or three sugar units [“Denpun.Kanren Toushitsu Kouso Jikken-hou” (“Experimental methods in enzymes for starch and relating saccharides”), p 135, written by Michinori Nakamura and Keiji Kainuma, published by Gakkai-Shuppan-Sentah]. Upon this, a swine pancreatic α-amylase (manufactured by Sigma Co., A-6255) was analyzed the hydrolyzing properties and the hydrolysates as a comparative example for the novel amylase of the present invention. […] The activity of producing disaccharide and trisaccharide was employed as the index of the enzymatic activity, and the analysis was performed by the TSK-gel Amide-80 HPLC analyzing method described in Example II-1.
Incidentally, the enzymatic activity values in Table 17 were expressed with such a unit as 1 Unit equals the activity of liberating 1 umol of each oligosaccharide per hour.

[5] = test system: transferase derived from the Sulfolobus solfataricus strain KM1; assay: Conversion of maltooligosaccharides into α-1,α-1-transferred isomers by purified transferase; assay type: biochemical; settings: substrate 100 mM; for Enzyme activity: enzyme 13.5 Units/ml (on maltotriose), 1 Unit = 1 umol α-1,α-1-transferred isomer per hour
Procedure: As the substrates, maltotriose (G3)-maltoheptaose (G7) were used in a concentration of 100 mM. The purified enzyme obtained in Example I-2 was then allowed to act on each of the above substrates in an amount of 13.5 Units/ml (in terms of the enzyme activity when the substrate is maltotriose) to produce a corresponding α-1,α-1-transferred isomer. Each product was analyzed by the method in Example I-1, and investigated its yield and enzyme activity. Incidentally, in Table 10, each enzymatic activity value was expressed with such a unit as 1 Unit equals the activity of converting the maltooligosaccharide into 1 umol of corresponding α-1,α-1-transferred isomer per hour.

[6] = test system: transferase derived from the Sulfolobus solfataricus strain KM1; assay: Substrate specificity of the transferase (production of α-1,α-1-transferred isomer); assay type: biochemical
Procedure: It was investigated whether or not the present enzyme acts on each of the substrates listed in Table 9 below to produce its α-1,α-1-transferred isomer. Here, the activity measurement was performed in the same manner as in Example I-1.

[7] = molecular target: T2, amylase derived from the Sulfolobus solfataricus strain KM1; assay: biochemical; assay type: biochemical; settings: Concentration 0.5 mM
[8] = test system: transferase derived from the Sulfolobus solfataricus strain KM1; assay: Influence of activators and inhibitors on glucosyltrehalose-producing activity; assay type: biochemical; settings: Concentration 0.5 mM

Molecule | Liberated oligosaccharide [1] | Production rate of mono- and disaccharides [1] [units/ml] | Enzyme activity [2] [unit/ml] | Liberated oligosaccharide [3] | Production rate of mono- and disaccharides [3] [units/ml] | Liberated oligosaccharide [4] | Production rate of di- and trisaccharides [4] [units/ml] | Enzyme activity [5] [units/ml] | Action of the enzyme on the substrate [1] | Action of the enzyme on the substrate [3] | Action of the enzyme on the substrate [6] | Residual activity [7] [%] | Residual activity [8] [%] | Activity relative to G3 [5]
OC[C@H]1O[C@H](O[C@H]2[C@H](O)[C@@H](O)[C@@H](O[C@H]3[C@H](O)[C@@H](O)C(O)O[C@@H]3CO)O[C@@H]2CO)[C@H](O)[C@@H](O)[C@@H]1O (mixture of isomers) [Maltotriose (G3), Maltotriose] | Glucose + G2 | 0.27 | 12.7 | Glucose + G2 | 0.30 | not decomposed | 0 | 13.5 |  |  |  |  |  | 
OC[C@H]1O[C@H](OC[C@H]2O[C@H](OC[C@H]3O[C@H](OC[C@H]4O[C@H](OC[C@H]5OC(O)[C@H](O)[C@@H](O)[C@@H]5O)[C@H](O)[C@@H](O)[C@@H]4O)[C@H](O)[C@@H](O)[C@@H]3O)[C@H](O)[C@@H](O)[C@@H]2O)[C@H](O)[C@@H](O)[C@@H]1O (stereo partly shown) [Isomaltopentaose] | not decomposed | 0 |  | not decomposed | 0 |  |  |  | did not act | did not act | did not act |  |  | 
OC[C@H]1O[C@H](OC[C@H]2O[C@H](OC[C@H]3O[C@H](OC[C@H]4OC(O)[C@H](O)[C@@H](O)[C@@H]4O)[C@H](O)[C@@H](O)[C@@H]3O)[C@H](O)[C@@H](O)[C@@H]2O)[C@H](O)[C@@H](O)[C@@H]1O (stereo partly shown) [Isomaltotetraose] | not decomposed | 0 |  | not decomposed | 0 |  |  |  | did not act | did not act | did not act |  |  | 
OC[C@H]1O[C@H](OC[C@H]2O[C@H](OC[C@H]3OC(O)[C@H](O)[C@@H](O)[C@@H]3O)[C@H](O)[C@@H](O)[C@@H]2O)[C@H](O)[C@@H](O)[C@@H]1O (stereo partly shown) [Isomaltotriose] | not decomposed | 0 |  | not decomposed | 0 |  |  |  | did not act | did not act | did not act |  |  | 
OC[C@H]1O[C@H](O[C@H]2[C@H](O)[C@@H](O)[C@@H](O[C@H]3[C@H](O)[C@@H](O)[C@@H](O[C@H]4[C@H](O)[C@@H](O)C(O)O[C@@H]4CO)O[C@@H]3CO)O[C@@H]2CO)[C@H](O)[C@@H](O)[C@@H]1O (stereo partly shown) [Maltotetraose (G4), Maltotetraose] | Glucose + G2 + G3 | 0.26 | 72.5 | Glucose + G2 + G3 | 0.31 | Glucose + G2 + G3 | 0.49 | 76.3 |  |  |  | 108.5 | 97.4 | 
OC[C@H]1O[C@H](OC[C@H]2O[C@H](O[C@H]3[C@H](O)[C@@H](O)C(O)O[C@@H]3CO)[C@H](O)[C@@H](O)[C@@H]2O)[C@H](O)[C@@H](O)[C@@H]1O (stereo partly shown) [Panose] | not decomposed | 0 |  | not decomposed | 0 |  |  |  | did not act | did not act | did not act |  |  | 
Maltoheptaose [Maltoheptaose (G7)] |  |  | 60.2 | Glucose + G2 + G5 + G6 | 1.80 |  | 4.45 | 70.5 |  |  |  | 129.2 | 93.5 | 
Maltohexaose [Maltohexaose (G6)] |  |  | 87.3 | Glucose + G2 + G4 + G5 | 1.74 |  | 4.44 | 100.9 |  |  |  | 123.8 | 91.0 | 
Maltopentaose [Maltopentaose (G5)] | Glucose + G2 + G3 + G4 | 2.12 | 103.5 | Glucose + G2 + G3 + G4 | 1.79 |  | 6.12 | 111.3 |  |  |  | 105.8 | 101.9 | approximately 8 times
